# Data taken from US9957264B2 (Merck Sharp & Dohme Corp., priority 2013, dated 2018).
# Columns and labels:
# [1] = biological target: JAK1 (recombinant purified GST-tagged catalytic domain) (Homo sapiens (Human), UniProt P23458); experiment: Jak Biochemical HTRF Assay (JAK1); conditions: [ATP] 31.8 μM
# In short: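 Compounds in DMSO were pre-equilibrated with enzyme and biotinylated peptide, then ATP was added and the reaction proceeded 120 min at room temperature. EDTA-based stop buffer with detection reagents was added, and after 60 min the time-resolved FRET ratio was read. IC50s came from 4-parameter dose–response fits.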
# [2] = biological target: JAK2 (recombinant purified GST-tagged catalytic domain) (Homo sapiens (Human), UniProt O60674); experiment: Jak Biochemical HTRF Assay (JAK2); conditions: [ATP] 8.5 μM
# Sequence of JAK2 (recombinant purified GST-tagged catalytic domain) (O60674 849-1124): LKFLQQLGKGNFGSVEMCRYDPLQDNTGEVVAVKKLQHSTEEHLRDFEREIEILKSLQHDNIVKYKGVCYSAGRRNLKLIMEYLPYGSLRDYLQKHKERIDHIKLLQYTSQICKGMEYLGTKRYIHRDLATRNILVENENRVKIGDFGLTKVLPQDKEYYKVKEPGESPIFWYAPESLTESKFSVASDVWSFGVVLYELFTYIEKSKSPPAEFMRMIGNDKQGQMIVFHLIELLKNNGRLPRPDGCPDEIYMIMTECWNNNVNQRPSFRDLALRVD
# Sequence of JAK1 (recombinant purified GST-tagged catalytic domain) (P23458 875-1153): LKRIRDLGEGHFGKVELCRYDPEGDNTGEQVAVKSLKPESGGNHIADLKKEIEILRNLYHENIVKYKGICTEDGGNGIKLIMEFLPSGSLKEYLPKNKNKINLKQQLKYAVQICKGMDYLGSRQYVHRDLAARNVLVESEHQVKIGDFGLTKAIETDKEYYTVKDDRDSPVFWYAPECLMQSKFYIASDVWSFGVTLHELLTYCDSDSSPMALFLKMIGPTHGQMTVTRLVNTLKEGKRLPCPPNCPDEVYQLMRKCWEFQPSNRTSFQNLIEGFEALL
SMILES,IC50 [1] [nM],IC50 [2] [nM]
"CCNc1nn(C2(CC#N)CCN(C(=O)OC(C)(C)C)CC2)c2cc[nH]c(=O)c12 [Example 2-1, tert-butyl 4-(cyanomethyl)-4-[3-(ethylamino)-4-oxo-4,5-dihydro-1H-pyrazolo[4,3-c]pyridin-1-yl]piperidine-1-carboxylate]",48.2,60.3
"CC(C)(C)OC(=O)N1CC[C@](CC#N)(n2nc(Nc3ccc(S(C)(=O)=O)cc3)c3c(=O)[nH]ccc32)[C@@H](F)C1 (single isomer, unassigned) [Example 5-14, tert-butyl (3S,4R or 3R,4S)-4-(cyanomethyl)-3-fluoro-4-(3-{[4-(methylsulfonyl)phenyl]amino}-4-oxo-4,5-dihydro-1H-pyrazolo[4,3-c]pyridin-1-yl)piperidine-1-carboxylate]",1.07,17.7
"N#CC[C@]1(n2nc(Nc3ccc4c(c3)CN(C3CCN(CC(F)(F)F)CC3)S4(=O)=O)c3c(=O)[nH]ccc32)CCOC[C@H]1F (single isomer, unassigned) [Example 5-278, 2-((3S,4S or 3R,4R)-4-(3-((1,1-dioxido-2-(1-(2,2,2-trifluoroethyl)piperidin-4-yl)-2,3-dihydrobenzo[d]isothiazol-5-yl)amino)-4-oxo-4,5-dihydro-1H-pyrazolo[4,3-c]pyridin-1-yl)-3-fluorotetrahydro-2H-pyran-4-yl)acetonitrile]",0.2,2.65
"CCN1Cc2cc(Nc3nn(C4(CC#N)CCN(C(=O)OC)CC4)c4cc[nH]c(=O)c34)ccc2S1(=O)=O [Example 5-72, methyl 4-{3-[(2-ethyl-1,1-dioxo-2,3-dihydro-1,2-benzothiazol-5-yl)amino]-4-oxo-1H,4H,5H-pyrazolo [4,3-c]pyridin-1-yl}-4-(cyanomethyl)piperidine-1-carboxylate]",0.06,0.26
"CC(C)(C)OC(=O)[C@H]1CC[C@@](CC#N)(n2nc(Nc3ccc([C@@H](N)C(F)(F)F)cc3)c3c(=O)[nH]ccc32)CO1 (single isomer, unassigned) [Example 5-50, (2R,5S)-tert-butyl 5-(3-((4-((R or S)-1-amino-2,2,2-trifluoroethyl)phenyl)amino)-4-oxo-4,5-dihydro-1H-pyrazolo[4,3-c]pyridin-1-yl)-5-(cyanomethyl) tetrahydro-2H-pyran-2-carboxylate]",11.8,34.5
"CC(C)(C)OC(=O)[C@@H]1CC[C@@](CC#N)(n2nc(Nc3ccc(S(=O)(=O)N4CCOCC4)cc3)c3c(=O)[nH]ccc32)CO1 [Example 5-203, (2S,5S)-tert-butyl 5-(cyanomethyl)-5-(3-((4-(morpholinosulfonyl)phenyl)amino)-4-oxo-4,5-dihydro-1H-pyrazolo[4,3-c]pyridin-1-yl)tetrahydro-2H-pyran-2-carboxylate]",0.15,0.27
"N#CC[C@@]1(n2nc(Nc3ccc(Cl)cc3)c3c(=O)[nH]ccc32)CCOC1 (single isomer, unassigned) [Example 5-241, [(3R or 3S)-3-{3-[(4-chlorophenyl)amino]-4-oxo-4,5-dihydro-1H-pyrazolo[4,3-c]pyridin-1-yl}tetrahydrofuran-3-yl]acetonitrile]",2.62,23.4
"CC(C)OC(=O)C(C)(C)C(O)(c1ccc(Nc2nn([C@]3(CC#N)CC[C@@H](C(=O)OC(C)(C)C)OC3)c3cc[nH]c(=O)c23)cc1)C(F)(F)F (single isomer, unassigned) [Example 5-163, (2S,5S)-tert-butyl 5-(cyanomethyl)-5-(4-oxo-3-((4-((S or R)-1,1,1-trifluoro-2-hydroxy-4-isopropoxy-3,3-dimethyl-4-oxobutan-2-yl)phenyl)amino)-4,5-dihydro-1H-pyrazolo[4,3-c]pyridin-1-yl)tetrahydro-2H-pyran-2-carboxylate]",1.96,2.21

# The remaining lines, values ahead:
IC50 [1] [nM],IC50 [2] [nM],SMILES
1.4,3.26,"CC(c1c(F)cccc1F)N1CCC(CC#N)(n2nc(Nc3ccc(S(=O)(=O)N(C)C)cc3)c3c(=O)[nH]ccc32)CC1 (centres unmarked) [Example 8-17, 4-((1-(4-(cyanomethyl)-1-(1-(2,6-difluorophenyl)ethyl)piperidin-4-yl)-4-oxo-4,5-dihydro-1H-pyrazolo[4,3-c]pyridin-3-yl)amino)-N,N-dimethylbenzenesulfonamide]"
0.45,3.08,"CN(C)S(=O)(=O)c1ccc(Nc2nn(C3(CC#N)CCN(C(=O)OCC(C)(C)C)CC3)c3cc[nH]c(=O)c23)cc1 [Example 10-4, neopentyl 4-(cyanomethyl)-4-(3-((4-(N,N-dimethylsulfamoyl)phenyl)amino)-4-oxo-4,5-dihydro-1H-pyrazolo[4,3-c]pyridin-1-yl)piperidine-1-carboxylate]"
0.17,1.07,"CN(C)S(=O)(=O)c1ccc(Nc2nn(C3(CC#N)CCN(C(=O)CC4CC4)CC3)c3cc[nH]c(=O)c23)cc1 [Example 9-10, 4-({1-[4-(cyanomethyl)-1-(cyclopropylacetyl)piperidin-4-yl]-4-oxo-4,5-dihydro-1H-pyrazolo[4,3-c]pyridin-3-yl}amino)-N,N-dimethylbenzenesulfonamide]"
0.04,0.04,"CC1(C)C(=O)Nc2cc(Nc3nn([C@@]4(CC#N)CCCC[C@H]4F)c4cc[nH]c(=O)c34)ccc21 [Example 21-2, [(1R,2R)-1-{3-[(3,3-dimethyl-2-oxo-2,3-dihydro-1H-indol-6-yl)amino]-4-oxo-4,5-dihydro-1H-pyrazolo[4,3-c]pyridin-1-yl}-2-fluorocyclohexyl]acetonitrile]"
1.08,12,"CN(C)S(=O)(=O)c1ccc(Nc2nn(C3(CC#N)CCN(C(=O)c4ccc(Cl)cc4)CC3)c3cc[nH]c(=O)c23)cc1 [Example 9-13, 4-[(1-{1-[(4-chlorophenyl)carbonyl]-4-(cyanomethyl)piperidin-4-yl}-4-oxo-4,5-dihydro-1H-pyrazolo[4,3-c]pyridin-3-yl)amino]-N,N-dimethylbenzenesulfonamide]"
0.26,0.99,"CN(C)S(=O)(=O)c1ccc(Nc2nn(C3(CC#N)CCN(Cc4ncco4)CC3)c3cc[nH]c(=O)c23)cc1 [Example 8-12, 4-({1-[4-(cyanomethyl)-1-(1,3-oxazol-2-ylmethyl)piperidin-4-yl]-4-oxo-4,5-dihydro-1H-pyrazolo[4,3-c]pyridin-3-yl}amino)-N,N-dimethylbenzenesulfonamide]"
0.41,0.9,"CO[C@H](c1ccc(Nc2nn([C@]3(CC#N)CC[C@@H](C(=O)OC(C)(C)C)OC3)c3cc[nH]c(=O)c23)cc1)C(F)(F)F (single isomer, unassigned) [Example 21-7, (2S,5S)-tert-butyl 5-(cyanomethyl)-5-(4-oxo-3-((4-((R or S)-2,2,2-trifluoro-1-methoxyethyl)phenyl)amino)-4,5-dihydro-1H-pyrazolo[4,3-c]pyridin-1-yl)tetrahydro-2H-pyran-2-carboxylate]"
1.69,16.8,"CN(C)S(=O)(=O)c1ccc(Nc2nn(C3(CC#N)CCN(C(=O)c4ccccc4)CC3)c3cc[nH]c(=O)c23)cc1 [Example 9-12, 4-({1-[4-(cyanomethyl)-1-(phenylcarbonyl)piperidin-4-yl]-4-oxo-4,5-dihydro-1H-pyrazolo[4,3-c]pyridin-3-yl}amino)-N,N-dimethylbenzenesulfonamide]"
